# Data taken from US20050209198A1, “Pharmaceutical composition comprising a bisphosphonate and a cox-2 inhibitor for the treatment of bone diseases” (priority 2002, published 2005).
# Key:
# [1] = tested on: patients with postmenopausal osteoporosis; assay: 24 months trial of iv zoledronic acid, bone mineral density (BMD) by DEXA; type: in vivo; conditions: bolus iv, dose administration as infrequent as every 6 or 12 months, compared to placebo
# Experimental: (§1) A dose and dose regimen-finding 24 months trial of iv zoledronic acid in patients with postmenopausal osteoporosis is carried out. Three hundred and fifty one patients are randomized to six study arms. […] All patients are evaluated at baseline and in 3-monthly visits. Zoledronic acid or placebo was administered as a bolus iv injection into a peripheral vein over 5 minutes at every visit. Patients from both zoledronic acid treated and placebo groups also receive an oral COX-2 inhibitor (5-methyl-2-(2′-chloro-6′-fluoroanilino)phenylacetic acid—400 mg per day p.o.) or oral placebo.
# (§2) Efficacy is ascertained by measurement of percent change from baseline in bone mineral density (BMD) measured by dual energy X-ray absorptiometry (DEXA) as compared to placebo, at 6, 9, and 12 months. Patients also maintain records of pain scores on a once weekly basis and are monitored for pain scores at the 3-monthly visits.
# • Placebo • 0.25 mg zoledronic acid every 3 months • 0.5 mg zoledronic acid every 3 months • 1.0 mg zoledronic acid every 3 months • 2.0 mg zoledronic acid every 6 months • 4.0 mg zoledronic acid every 12 months each with 50% COX-2 treatment and 50% oral placebo.
# [2] = tested on: patients with postmenopausal osteoporosis; assay: Pain scores and general well being in the same trial, oral COX-2 inhibitor vs oral placebo; type: in vivo; conditions: 400 mg per day p.o. vs oral placebo, on zoledronic acid or placebo background
# Experimental: as §1, §2
smiles,measurement,setting,value
"O=P(O)(O)C(O)(Cn1ccnc1)P(=O)(O)O [zoledronic acid, 1-hydroxy-2-(imidazol-1-yl)ethane-1,1-diphosphonic acid]","bone mineral density (BMD), bone mass change",[1],statistically significant and medically relevant bone mass increase
"Cc1ccc(Nc2c(F)cccc2Cl)c(CC(=O)O)c1 [COX-2, 5-methyl-2-(2′-chloro-6′-fluoroanilino)phenylacetic acid]",pain scores and general well being of patients,[2],show improvement over the oral placebo treated groups
